Data as given in patent US20070282004A1, “Use of a Cyclopentenone Prostaglandin for Delaying for the Onset and/or Preventing the Continuation of Labour” (Imperial College Innovations Limited, priority 2003, published 2007).

Assays:
NF-κB [1] = assay: NF-κB-dependent luciferase reporter (κB.BG.Luc) in amnion cells; format: cell-based, human; conditions: L− or L+ amnion cells, treated 2 h, IL-1β 1 ng/ml 6 h
Procedure: . Values are normalised for b-gal reporter activity.
(§1) Placentae were obtained from patients at term either at elective Caesarean section prior to labour (L−) or following spontaneous labour onset and vaginal delivery (L+). Amnion cells were prepared as described in Bennett et al., (1989). Briefly, the amnion was separated from the placenta, washed 3× in PBS, cut into strips, and incubated in 0.5 mM EDTA in PBS for 15 min. The strips were washed in PBS 2× and digested with 2.5 mg/ml dispase in serum-free DMEM for 35 min at 37° C. The amnion was then shaken vigorously in DMEM, 10% FCS to dissociate the cells, the remaining strips discarded, and the cell suspension pelleted at 175 g for 10 min and cultured in DMEM, 10% FCS (Sigma), 1% L-glutamine, 1% penicillin-streptomycin.
pGL3.6κB.BG.luc was the reporter construct used to assess NF-κB-mediated transcription, while the mutant pGL3.6κBmut.luc and empty pGL3.BG.luc were used as controls (Schwarzer et al., 1998).
pGL3.6κB.BG.luc: a NF-κB-dependent reporter construct with 6 copies of the NF-κB binding site. It contains two tandem repeats of the sequence 5′-GGG GAC TTT C CC TGGGGACTTTCCCTGGGGACTTTCCC-3′, which contains three copies of the decameric NF-κB binding site (underlined) upstream of a minimal β-globin promoter driving a luciferase gene.
Cells were co-transfected with the renilla vector pRL-CMV or β-galactosidase vector pCH110 as internal controls for transfection efficiencies.

NF-κB [2] = assay: Western immunoblot of p65, p50, IκB in amnion cell extracts; format: cell-based, human; conditions: L−, L+ amnion cells; for IL-1β-induced p65 nuclear translocation: treated 2 h, IL-1β 15 min
Procedure: Western immunoblots of nuclear or cytosolic protein extracts from (A) myometrial cells, (B) L− amnion cells, and (C) L+ amnion cells treated with 15dPGJ2 or vehicle for 2 h±IL-1β stimulation (15 min). Blots probed with antibodies against p65, p50 or IκBα.
as §1
Nuclear and cytosolic protein extracts were obtained from cultured amnion cells as described by Schreiber et al (1989). For nuclear/cytosolic fractionation, confluent cell monolayers were scraped and lysed using a buffer containing 10 mM HEPES, 10 mM KCl, 0.1 mM EDTA, 0.1 mM EGTA, 2 mM DTT, 1% (v/v) NP-40 and complete protease inhibitor tablets (CPIs, Roche), diluted to manufacturer's instructions. Cell lysates were incubated on ice for 10 min and NP-40 added to a final concentration of 1% (v/v). Lysates were vortexed for 10 secs and centrifuged for 30 secs at 4° C., 12000 g. The supernatants were retained as the cytosolic protein extracts. The pellets were resuspended in buffer containing 10 mM HEPES, 10 mM KCl, 0.1 mM EDTA, 0.1 mM EGTA, 2 mM DTT, 400 mM NaCl, 1% NP-40 (v/v) and CPIs. Samples were shaken vigorously for 15 min in an ice bath. The nuclear protein extracts were obtained in the supernatant following a 5 min centrifugation at 4° C., 12000 g.
Protein samples (20-70 μg) were mixed with Laemmli sample buffer (1:1) containing β-mercaptoethanol (5%), and boiled for 5 min. Proteins were then separated by SDS-PAGE (12-14% gels) and transferred onto PVDF membrane (Amersham Pharmacia Biotech). The membranes were blocked overnight in 5% non-fat milk prepared in PBS-T buffer, at 4° C. The blots were incubated with the primary antibody in 1% non-fat milk in PBS-T buffer for 1 h, and washed three times (10 min each) in PBS-T with vigorous shaking. The blots were then incubated with HRP-conjugated secondary antibody (diluted 1:2000 in 1% non-fat milk in PBS-T buffer) for 1 h and washed three times (10 min each) in PBS-T. Signal detection was achieved using enhanced chemi-luminescence (ECL plus system, Amersham Pharmacia Biotech) according to manufacturer's instructions.
30-50 μg protein extracts were subjected to SDS-PAGE and Western immuno-blotting. Secondary antibodies were IgG-HRP and ECL Plus detection kit (Amersham Pharmacia Biotech, Amersham Place, Little Chalfont, Bucks, HP7 9NA) was used for visualisation.

IL-1β = assay: Mouse model of preterm labour (LPS): placental IL-1β by ELISA; format: in vivo; conditions: gestation day 16 mice, 6 hours after intrauterine 250 μg LPS + 4 μg 15d-PGJ2, p<0.05
Procedure: Concentrations of IL-1β in placental homogenates collected from gestation day 16 mice 6 hours after intrauterine injection of 250 μg LPS+vehicle or 250 μg LPS+4 μg 15d-PGJ2. * denotes statistically significant difference (t-test (p<0.05)).
(§2) Surgery was performed on timed pregnant MF1 mice at day 16 of gestation. After deep maternal anaesthesia was attained, a minilaparotomy was performed in the lower abdomen. The uterine horns were exposed through the incision and preterm labour was induced by the intrauterine injection of 250 μg lipopolysaccharide (LPS, Sigma) into the gravid horn. This was immediately followed by injection of 4 μg […] (Cayman), or an equal volume of vehicle (methyl acetate), at the same site. The uterus was then returned to the abdomen and the fascia and skin were closed with continuous vicryl sutures.
(§3) Mice were sacrificed 6 hours after injection of LPS±15d-PGJ2. […]
(§4) Homogenate levels of Interlekin-1β (IL-1β) and tumour necrosis factor α (TNFα) were determined in placental lysates by ELISA (R and D systems) according to manufacturers instructions. Total protein concentrations were determined for each homogenate and IL-1β and TNFα levels were expressed as pg/mg total protein. […] Phosphorylated p65 (phospho-p65) was detected by western immunoblotting using a specific antibody (Santa Cruz) and quantified by densitometric analysis.

TNFα = assay: Mouse model of preterm labour (LPS): placental TNFα by ELISA; format: in vivo; conditions: gestation day 16 mice, 6 hours after intrauterine LPS + 15d-PGJ2 vs LPS + vehicle
Procedure: as §2
Mice were sacrificed 6 hours after injection of LPS±15d-PGJ2. Placentae were washed in phosphate buffered saline (PBS), flash frozen in liquid nitrogen and stored at −80° C. until further processing. Fetuses were washed in PBS, then immediately fixed in 4% parafornaldellyde for 24 h and then stored in 70% ethanol until further processing. […]
as §4

phospho-p65 = assay: Mouse model of preterm labour (LPS): placental phospho-p65 by western immunoblot; format: in vivo; conditions: gestation day 16 mice, 6 hours after intrauterine 250 μg LPS + 15d-PGJ2, p<0.05
Procedure: Relative concentrations of phospho-p65 in placental homogenates collected from gestation day 16 mice 6 hours after intrauterine injection of 250 μg LPS+vehicle or 250 μg LPS+[…] 15d-PGJ2. * denotes statistically significant difference (t-test (p<0.05)).
as §2, §3, §4

PPARα = conditions: Forman et al., 1995; cited from earlier work

Compound	IL-1β-induced NF-κB transcriptional activity (κB.BG.Luc reporter) (NF-κB [1])	IL-1β-induced IκBα degradation (NF-κB [2])	IL-1β-induced IκBβ degradation (NF-κB [2])	IL-1β-induced p50 phosphorylation (NF-κB [2])	IL-1β-induced p65 nuclear translocation (NF-κB [2])	IL-1β-induced p65 nuclear translocation (NF-κB [2]; listed as 15dPGJ2)	Levels of IL-1β lower in proximal placentae vs LPS+vehicle (IL-1β)	TNFα levels in placentae according to drug treatment (TNFα)	phospho-p65 levels lower in proximal placentae vs LPS+vehicle (phospho-p65)	Transactivation of PPAR-α (PPARα)
CCCCCC=CC=C1C(=O)C=C[C@@H]1CC=CCCCC(=O)O [15d-PGJ2, 15-deoxy-Δ^12,14prostaglandin J2]	inhibited	inhibition	inhibition	inhibition	inhibited	inhibition	approximately 40%	not significantly altered	approximately 35%	more weakly than PPAR-γ
CCCCC[C@H](O)/C=C/[C@H]1C=CC(=O)[C@@H]1CCCCCCC(=O)O [PGA1, prostaglandin A1]	inhibited	–	–	–	–	–	–	–	–	–
